Data on 105 compounds can be found in PubChem BioAssay AID1996.

Values after ≈ are worked out from the molar mass of the structure shown.

The conditions of this data set: buffer; pH 7.4; 200.0 µM.
What is called solubility (kinetic) is solubility judged after dilution from a stock solution rather than from solid. As to `Cc1ccc(S(=O)(=O)N2CCOCC2)cc1NC(=O)COC(=O)C1(C)CC1(Cl)Cl` (stereo not given), the kinetic solubility was greater than 69.8 µg/mL. The compound `CCOc1ccc2oc(C(=O)OCC(=O)NC3CC3)c(C)c2c1` registered a kinetic solubility of 1.5 µg/mL (≈ 4.73 µM). Turning to `CC(=O)N1N=C(N)SC1(C)C`, the kinetic solubility was greater than 26 µg/mL. As to `COc1ccc(C(CC(=O)NCc2ccccc2)C(C)C)cc1` (stereo not given), the kinetic solubility was found to be 10.1 µg/mL (≈ 32.4 µM). As for `CCN1CCN(S(=O)(=O)c2ccc3c4c(cccc24)C(=O)N3CC)CC1`, the figure is greater than 56 µg/mL; as for `Cc1ccc(OCC(=O)Nc2c[nH]c(=O)[nH]c2=O)cc1C`, 1 µg/mL (≈ 3.46 µM); as for `Cc1cc(CNC(=O)Cc2ccccc2)c2ccccc2n1`, greater than 43.6 µg/mL.

For `O=C1NC(=S)N(c2ccccc2)C(=O)/C1=C/c1ccco1`, the kinetic solubility is 43 µg/mL (≈ 144 µM). With `COc1ccc(CN2CCN(Cc3ccc(C)cc3)C(CCO)C2)cc1OC` (stereo not given), the solubility (kinetic) was 51.8 µg/mL (≈ 135 µM). Regarding `Cc1[nH]n(-c2ccccc2)c(=O)c1/C=N/NC(=O)c1cccc(F)c1`, the kinetic solubility was greater than 50.8 µg/mL.

For `CN(CC(=O)Nc1c(F)cccc1F)Cc1cccs1`, the kinetic solubility was greater than 44.5 µg/mL. As for `Cl.OC(COCc1ccc(Cl)cc1)CN1CCCCC1` (stereo not given), the figure is 46.4 µg/mL; as for `COc1ccc(C(=O)CCC(=O)Nc2cccnc2)c(OC)c1`, greater than 47.2 µg/mL. As for `N#Cc1c(-c2cccs2)cc(-c2cccs2)[nH]c1=O`, the figure is 0.7 µg/mL (≈ 2.46 µM); as for `CCc1cccc(OCC2Cn3c(nc4c3c(=O)n(C)c(=O)n4C)O2)c1` (stereo not given), 28.2 µg/mL (≈ 79.1 µM); as for `Cc1ccc(C)c(-c2csc(NC(=O)C3=COCCO3)n2)c1`, 11.3 µg/mL (≈ 35.7 µM). In turn, `CN(C)/C=N/c1sc2c(c1C(N)=O)CCCC2` gave a solubility (kinetic) of 19.4 µg/mL (≈ 77.2 µM). The value for `CCN(CC)S(=O)(=O)N1CCC(C(=O)NCc2ccco2)CC1` was greater than 51.5 µg/mL. As for `CCCOc1ccc(S(=O)(=O)Nc2ccccn2)c2ccccc12`, the figure is less than 0.4 µg/mL; as for `O=C(NCc1ccccc1)N1CCC(Cc2ccccc2)CC1`, less than 0.3 µg/mL.

Compound `O=C(C1COc2ccccc2O1)N1CCN(c2ccc([N+](=O)[O-])cc2)CC1` (stereo not given) showed a solubility (kinetic) of 7.7 µg/mL (≈ 20.8 µM).

The compound `CN1CCN(S(=O)(=O)c2ccc([N+](=O)[O-])cc2)CC1` yielded a solubility (kinetic) greater than 42.8 µg/mL. Take `Cc1ccccc1C(=O)O/N=C(\N)c1ccc([N+](=O)[O-])cc1`: the kinetic solubility came out at 6 µg/mL (≈ 20 µM). The value for `CCOc1ccc(/C=C(\C)C(=O)c2c(C)cc(C)[nH]c2=O)cc1` was 38.3 µg/mL (≈ 123 µM). Consider `CSc1cccc(NC(=O)CC2Oc3ccccc3NC2=O)c1` (stereo not given), for which the solubility (kinetic) amounted to 1.8 µg/mL (≈ 5.48 µM). The value for `CCOC(=O)c1cc(C)nc(Sc2ccc(C)cc2)c1C#N` was 3.1 µg/mL (≈ 9.92 µM); that for `COc1ccc(OC)c(S(=O)(=O)n2ccnc2C(C)C)c1` was 46.1 µg/mL (≈ 149 µM); that for `CC1(C)CC(NC(=O)c2ccccc2F)CC(C)(C)N1` was greater than 41.8 µg/mL. Consider `CCCCSCCCNC(=S)Nc1ccccc1C`, for which the solubility (kinetic) was determined as 35.3 µg/mL (≈ 119 µM). The value for `CCOC(=O)N1CCN(C(=O)/C=C/c2ccc(OC)c(OC)c2)CC1` was 51.5 µg/mL (≈ 148 µM); that for `CCCN1C(=O)C2(OCCO2)c2cc(Cl)ccc21` was greater than 40.2 µg/mL.

Consider `Cc1cc(S(=O)(=O)Nc2noc3ccccc23)ccc1F`, for which the solubility (kinetic) turned out to be 41.2 µg/mL (≈ 135 µM). `O=C(CNc1cccc(Cl)c1)c1ccc(Br)cc1`: the kinetic solubility is less than 0.7 µg/mL. The value for `COc1ccc(CNC(=O)C2CC(C)=CCC2C(=O)O)cc1` (stereo not given) was greater than 45.5 µg/mL; that for `O=C(CSc1ccccn1)NC1CCCC1` was greater than 35.4 µg/mL; that for `Cc1csc(NC(=O)C2CC(=O)N(Cc3ccco3)C2)n1` (stereo not given) was greater than 45.8 µg/mL.

On to `Cc1ccc(Cn2cc(CCC(=O)O)c3ccccc32)cc1`, for which the kinetic solubility was greater than 44 µg/mL. On to `O=S1(=O)c2cccc3cccc(c23)N1CCBr`, for which the solubility (kinetic) worked out at 17.7 µg/mL (≈ 56.7 µM). `CC1CN(C(=O)CCNC(=O)c2ccc(Cl)cc2)CC(C)O1` (stereo not given): the kinetic solubility was determined as 42.1 µg/mL (≈ 130 µM).

Compound `CCOC(=O)c1cc(C#N)c(SC)nc1C` gave a kinetic solubility of 0.9 µg/mL (≈ 3.81 µM). On to `C=CC#CC1(O)CC(C)N(C)CC1C` (stereo not given), for which the kinetic solubility is greater than 29 µg/mL. Compound `C=CCn1c(NCc2ccccc2OC)nc2ccccc21` displayed a kinetic solubility of 30.2 µg/mL (≈ 103 µM). Compound `c1ccc(OCc2nc(-c3ccncc3)no2)cc1` returned a solubility (kinetic) of 36.5 µg/mL (≈ 144 µM). The value for `Cc1ccc2nc(-c3ccsc3)c(NC3CCCC3)n2c1` was 1.6 µg/mL (≈ 5.38 µM); that for `CCN(CC)S(=O)(=O)c1ccc(C(=O)Nc2cc(S(=O)(=O)N3CCOCC3)ccc2O)cc1` was 12.2 µg/mL (≈ 24.5 µM).

The compound `O=C(NC1CC1)c1cccc(S(=O)(=O)N2CCOCC2)c1` displayed a kinetic solubility greater than 46.6 µg/mL. `CCN(C#N)c1nc(NC(C)C)nc(NC(C)(C)C)n1` gave a solubility (kinetic) of 37 µg/mL (≈ 133 µM). As for `COc1cc(OC)cc(C(=O)NCCOC23CC4CC(CC(C4)C2)C3)c1`, the figure is 31.3 µg/mL (≈ 87.1 µM); as for `Cc1cc(=S)nc(-c2ccccn2)[nH]1`, 28.6 µg/mL (≈ 141 µM). The value for `COc1ccc2cc(Br)ccc2c1CC(=O)N(C)C` was 21.1 µg/mL (≈ 65.5 µM); that for `OC(COc1ccc(F)cc1Cl)CN1CCc2ccccc2C1` (stereo not given) was 37.4 µg/mL (≈ 111 µM); that for `CN1CCN(CC(O)COc2ccc(C(=O)O)cc2)CC1` (stereo not given) was 35.5 µg/mL (≈ 121 µM).

Consider `CCOc1ccc(NC(=O)C(CC(=O)O)Cc2ccc(Br)cc2)cc1` (stereo not given), for which the solubility (kinetic) was 50 µg/mL (≈ 123 µM). In the case of `CCCOc1cccc(C(=O)NCCNC(=O)c2cnccn2)c1`, the kinetic solubility is 48 µg/mL (≈ 146 µM). In turn, `Nc1ccc2nc(NC(=O)C3CCCCC3)sc2c1` displayed a kinetic solubility of 30.2 µg/mL (≈ 110 µM). As for `O=C(Nc1cccc(C(F)(F)F)c1)c1cc[n+]([O-])cc1`, the figure is greater than 42.3 µg/mL.

`Cc1sc2nc[nH]c(=O)c2c1-c1ccc(Cl)cc1` registered a kinetic solubility of 1.8 µg/mL (≈ 6.5 µM). The value for `O=[N+]([O-])c1cccc(S(=O)(=O)NCc2ccncc2)c1` was greater than 44 µg/mL. Compound `COc1cccc(C2NC(=O)CCC2[N+](=O)[O-])c1` (stereo not given) yielded a kinetic solubility greater than 37.5 µg/mL.

On to `C=CCNC(=O)c1cc(-c2ccc3c(c2)OCO3)on1`, for which the solubility (kinetic) came out at 1.5 µg/mL (≈ 5.51 µM). The value for `O=C(Nc1ccnc(-c2cccnc2)n1)c1cccs1` was 2.9 µg/mL (≈ 10.3 µM); that for `CCOC(=O)c1ccc2[nH]c3c(c2c1)CCCC3NC=O` (stereo not given) was greater than 42.9 µg/mL. The compound `COc1nc(N(C)C)nc(N(C#N)CCOC(C)=O)n1` displayed a kinetic solubility greater than 42 µg/mL.

Consider `N/C(Cc1cccc2ccccc12)=N\O`, for which the solubility (kinetic) is 15.2 µg/mL (≈ 75.9 µM). As for `Cc1cc(OC(C)C(=O)Nc2ccncc2)ccc1Cl` (stereo not given), the figure is greater than 43.6 µg/mL; as for `O=C(CN1CCN(Cc2cccc(F)c2)CC1)NCc1ccccc1`, 43.1 µg/mL (≈ 126 µM); as for `CCCCCC(=O)NC(CC(=O)OC)c1ccc2c(c1)OCO2` (stereo not given), greater than 48.2 µg/mL.

On to `O=S(=O)(c1cc(Cl)ccc1Cl)N1CCc2ccccc21`, for which the kinetic solubility is less than 0.7 µg/mL.

As to `CCOc1ccc(OCCC(=O)Nc2ccc(F)cc2C)cc1`, the kinetic solubility is 5 µg/mL (≈ 15.8 µM). As for `Cc1ccc(C)c(C(=O)COC(=O)Cn2c(C)csc2=O)c1`, the figure is greater than 47.9 µg/mL; as for `Clc1ccc(CN2CCC(c3ccccc3)CC2)cc1`, 4.3 µg/mL (≈ 15 µM). The value for `COc1ccccc1NC(=S)NCc1ccccc1Cl` was 1.3 µg/mL (≈ 4.24 µM); that for `CCOC(=O)c1ccc(NC(=S)NCc2ccco2)cc1` was greater than 45.7 µg/mL. As for `CCOc1ccc(-c2nc(CCl)cs2)cc1OC.Cl`, the figure is 27.2 µg/mL. With `CC(Sc1nc2ccc(C(=O)c3ccccc3)cc2[nH]1)C(=O)O` (stereo not given), the solubility (kinetic) was greater than 49 µg/mL.

The compound `CCCCc1nc(Cl)c(C#N)c2c1CCC2` yielded a solubility (kinetic) of 3.4 µg/mL (≈ 14.5 µM). Take `COc1ccccc1NC(=S)N1CC(C)(C)C1=O`: the solubility (kinetic) was 3 µg/mL (≈ 11.3 µM). `O=S(=O)(c1cccs1)N1CN(C2CCCC2)c2nc3ccccc3nc21` displayed a kinetic solubility of 8.1 µg/mL (≈ 21 µM). For `O=C(NC1CCCc2ccccc21)C1CCCC1` (stereo not given), the solubility (kinetic) worked out at 27.3 µg/mL (≈ 112 µM). The value for `O=C1CCCN=C(Nc2ccc(F)c(Cl)c2)S1` was 3.1 µg/mL (≈ 11.4 µM). As for `Cc1ccc(C(C)C)c(OC/C(O)=C(\C#N)c2nc3ccccc3[nH]2)c1`, the kinetic solubility is less than 0.2 µg/mL.

`N#Cc1ccc(OCC(=O)N2CCc3ccccc32)cc1` gave a kinetic solubility of 1.8 µg/mL (≈ 6.47 µM). In the case of `COC(=O)C1C(O)=C(C=Nc2cccc3ccccc23)C(=O)CC1(C)C` (stereo not given), the kinetic solubility was 31.6 µg/mL (≈ 89.9 µM). The value for `CN1C(=O)CCC(CCC(=O)O)(c2ccccc2O)C1=O` (stereo not given) was greater than 43.7 µg/mL; that for `CC(=O)N1CCN(c2ccnc3cc(Cl)ccc23)CC1` was 34.3 µg/mL (≈ 118 µM); that for `O=C(/C=C/c1ccccc1)OCC(=O)c1c[nH]c2ccccc12` was 3.9 µg/mL (≈ 12.8 µM). The value for `COc1ccc(CN2C(=O)c3ccccc3C2=O)cc1C(=O)O` was greater than 46.7 µg/mL; that for `Cc1cccc(-n2c(C)nc3ccc(Cl)cc3c2=O)c1` was 22.1 µg/mL (≈ 77.6 µM); that for `NC(=O)c1ccc(NCC2CCCO2)c([N+](=O)[O-])c1` (stereo not given) was greater than 39.8 µg/mL.

On to `CC(=O)Nc1ccc(S(=O)(=O)NCc2ccncc2)cc1`, for which the kinetic solubility was greater than 45.8 µg/mL. Compound `Cn1cnc(S(=O)(=O)N2CCN(c3ccc(F)cc3)CC2)c1` had a solubility (kinetic) greater than 48.7 µg/mL. The value for `Cc1ccc(S(=O)(=O)NCCNC(=O)CN2CCOCC2)cc1` was 48.8 µg/mL (≈ 143 µM); that for `Cc1nc2ccccc2c2oc(C(=O)N3CCC(C)CC3)cc12` was greater than 46.3 µg/mL; that for `Nc1nc(-c2ccccc2)c(C(=O)Nc2ccccc2)s1` was 9.4 µg/mL (≈ 31.8 µM). As to `COc1ccc(N2C(=O)c3ccccc3C2=O)cc1`, the solubility (kinetic) is 10.7 µg/mL (≈ 42.2 µM). `COc1cccc(-c2cc(C(=O)NCC3CCCO3)on2)c1` (stereo not given): the solubility (kinetic) was greater than 45.3 µg/mL. `O=c1[nH]c(COc2ccccc2)nc2ccccc12` showed a solubility (kinetic) of 4.1 µg/mL (≈ 16.3 µM). Turning to `CC1(C)CC(=O)c2sc(NS(=O)(=O)c3ccccc3)nc2C1`, the kinetic solubility was 48.9 µg/mL (≈ 145 µM).

`Cc1ccc(-n2c(C)nc3ccccc3c2=O)c(C)c1` came in with a solubility (kinetic) greater than 39.6 µg/mL. As for `Cc1cc(C)cc(NC(=O)c2ccc([N+](=O)[O-])o2)c1`, the figure is 8.3 µg/mL (≈ 31.9 µM). As for `COCCCNc1nc(N)c([N+](=O)[O-])c(NCc2ccccc2)n1`, the figure is 7.4 µg/mL (≈ 22.3 µM); as for `CC(C)C(=O)NNC(=O)c1csc(-c2cccs2)n1`, greater than 44.3 µg/mL. The value for `CC1(O)CCN2C(=O)CCc3cccc1c32` (stereo not given) was 19.3 µg/mL (≈ 88.8 µM); that for `CCOC(=O)C1=C(C)N(C)C(=S)N(C)C1c1ccc(OC)cc1` (stereo not given) was 19.8 µg/mL (≈ 59.2 µM); that for `CC(O)Cn1cnc2c1c(=O)n(C)c(=O)n2C` (stereo not given) was greater than 35.7 µg/mL.
